For 16 compounds, IC50 results are on record in US7626031B2, “Substituted 3-(diarylmethylene)indolin-2-ones and methods of their use” (Symphony Evolution, Inc., priority 2002, dated 2009).

Assay [1] concerns the target T1, KDR (baculovirus expressed human KDR kinase domain D807-V1356) (Homo sapiens, UniProt P35968).
T1 construct: human KDR kinase domain D807-V1356; host or cells: baculovirus expression system
In words: biochemical. As to the method:
(§1) Kinase activity and compound inhibition are investigated using one or more assay formats. The ATP concentrations for each assay are selected to be close to the Michaelis-Menten constant (KM) for each individual kinase. Dose-response experiments are performed at 10 different inhibitor concentrations in a 384-well plate format. […] Exemplary kinase assays are described below. KDR Assay
KDR biochemical activity was assessed using a Luciferase-Coupled Chemiluminescent Kinase assay (LCCA) format. Kinase activity was measured as the percent ATP remaining following the kinase reaction. Remaining ATP was detected by luciferase-luciferin-coupled chemiluminescence. […] The mixture is incubated at ambient temperature for 4 hours after which 20 uL luciferase-luciferin mix is added and the chemiluminescent signal read using a Wallac Victor^2 reader.

Another assay deals with EphA2 (Homo sapiens, UniProt P29317). In words: Kinase assay, EphA2 (33P-ATP incorporation or luciferase-coupled ATP consumption). The class given is biochemical. As to the method: (§2) Kinase assays were performed by measurement of incorporation of γ-^33P ATP into immobilized myelin basic protein (MBP). […] Plates were washed 3× with 100 μl TBS. […] Compound dilutions were performed in DMSO and added to assay wells to a final DMSO concentration of 1%. Each data point was measured in duplicate, and at least two duplicate assays were performed for each individual compound determination. Enzyme was added to final concentrations of 10 nM or 20 nM, for example. A mixture of unlabeled ATP and γ-^33P ATP was added to start the reaction (2×10^6 cpm of γ-^33P ATP per well (3000 Ci/mmole) and either 10 μM or 30 μM unlabeled ATP, typically. The reactions were carried out for 1 hour at room temperature with shaking. Plates were washed 7× with TBS, followed by the addition of 50 μl/well scintillation fluid (Wallac). Plates were read using a Wallac Trilux counter. This is only one format of such assays, various other formats are possible, as known to one of ordinary skill in the art.
EphA2, sequence (P29317 24-976, species assumed): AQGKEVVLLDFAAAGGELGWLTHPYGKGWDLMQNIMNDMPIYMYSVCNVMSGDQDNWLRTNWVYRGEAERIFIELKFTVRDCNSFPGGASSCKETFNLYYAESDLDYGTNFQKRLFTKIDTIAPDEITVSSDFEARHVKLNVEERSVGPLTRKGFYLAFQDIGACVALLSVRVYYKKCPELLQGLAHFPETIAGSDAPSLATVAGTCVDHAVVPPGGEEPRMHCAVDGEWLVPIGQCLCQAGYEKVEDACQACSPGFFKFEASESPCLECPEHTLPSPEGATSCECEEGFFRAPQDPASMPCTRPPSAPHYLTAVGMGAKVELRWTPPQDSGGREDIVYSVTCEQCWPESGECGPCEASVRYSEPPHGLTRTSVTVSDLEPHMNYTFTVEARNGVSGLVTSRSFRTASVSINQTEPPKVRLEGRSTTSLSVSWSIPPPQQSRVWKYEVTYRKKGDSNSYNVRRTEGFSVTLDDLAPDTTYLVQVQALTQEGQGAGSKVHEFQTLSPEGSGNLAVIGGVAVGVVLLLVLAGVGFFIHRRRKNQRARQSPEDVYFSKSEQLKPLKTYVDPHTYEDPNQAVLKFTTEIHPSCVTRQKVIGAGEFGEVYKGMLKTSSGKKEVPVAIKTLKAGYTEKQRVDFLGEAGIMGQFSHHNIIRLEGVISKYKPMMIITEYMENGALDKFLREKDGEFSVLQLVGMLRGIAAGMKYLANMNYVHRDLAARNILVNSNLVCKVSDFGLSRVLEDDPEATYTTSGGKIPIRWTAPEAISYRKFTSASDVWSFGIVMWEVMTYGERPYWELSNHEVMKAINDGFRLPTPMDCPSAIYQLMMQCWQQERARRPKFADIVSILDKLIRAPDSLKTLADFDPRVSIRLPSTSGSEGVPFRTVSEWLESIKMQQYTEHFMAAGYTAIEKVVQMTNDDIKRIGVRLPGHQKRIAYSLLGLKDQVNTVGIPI
(§3) Tyrosine kinase activity is determined by 1) measurement of kinase-dependent ATP consumption by in the presence of a generic substrate such as, polyglutamic acid, tyrosine, 4:1 (pEY), by luciferase/luciferin-mediated chemiluminescence or; 2) incorporation of radioactive phosphate derived from ^33P-ATP into a generic substrate which has been adsorbed onto the well surface of polystyrene microtiter plates. Phosphorylated substrate products are quantified by scintillation spectrometry.
as §1

The next assay has as its target EGFR (Homo sapiens, UniProt P00533). In words: Kinase assay, EGFR (33P-ATP incorporation or luciferase-coupled ATP consumption). It is filed as biochemical. Here is the method: as §2, §3, §1
The target in the next assay is FGFR1 (Homo sapiens, UniProt P11362). In words: Kinase assay, FGFR1 (33P-ATP incorporation or luciferase-coupled ATP consumption). It is filed as biochemical. Here is the method: as §2, §3, §1
The next assay concerns the target PDGFR alpha (Homo sapiens, UniProt P16234). In words: Kinase assay, PDGFR alpha (33P-ATP incorporation or luciferase-coupled ATP consumption). The class given is biochemical. Conditions: read-out: PDGF-R-A IC50. As to the method: as §2, §3, §1
In a further assay the target is Fyn (Homo sapiens, UniProt P06241). Kind of assay: Kinase assay, Fyn. The class given is biochemical. Here is the method:
as §1

The target of a further assay is IRK (Homo sapiens, UniProt P06213). Kind of assay: Kinase assay, IRK. It is filed as biochemical. Here is the method:
as §1

Bounds are passed on as bounds.

Fyn, sequence (P06241 whole entry, species assumed): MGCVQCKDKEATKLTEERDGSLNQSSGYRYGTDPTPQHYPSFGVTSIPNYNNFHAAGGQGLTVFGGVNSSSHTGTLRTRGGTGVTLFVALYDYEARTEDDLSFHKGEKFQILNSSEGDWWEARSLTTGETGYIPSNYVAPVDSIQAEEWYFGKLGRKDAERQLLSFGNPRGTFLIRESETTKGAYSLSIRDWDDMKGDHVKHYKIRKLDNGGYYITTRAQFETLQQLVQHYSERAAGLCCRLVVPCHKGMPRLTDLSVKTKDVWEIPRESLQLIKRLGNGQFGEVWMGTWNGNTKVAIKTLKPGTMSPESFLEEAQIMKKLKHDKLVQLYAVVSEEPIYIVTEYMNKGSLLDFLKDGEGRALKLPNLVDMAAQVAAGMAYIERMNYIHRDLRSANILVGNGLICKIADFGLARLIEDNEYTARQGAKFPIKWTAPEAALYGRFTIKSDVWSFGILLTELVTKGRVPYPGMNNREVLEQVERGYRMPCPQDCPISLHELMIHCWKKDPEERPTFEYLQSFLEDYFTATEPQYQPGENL
EGFR, sequence (P00533 25-1210, species assumed): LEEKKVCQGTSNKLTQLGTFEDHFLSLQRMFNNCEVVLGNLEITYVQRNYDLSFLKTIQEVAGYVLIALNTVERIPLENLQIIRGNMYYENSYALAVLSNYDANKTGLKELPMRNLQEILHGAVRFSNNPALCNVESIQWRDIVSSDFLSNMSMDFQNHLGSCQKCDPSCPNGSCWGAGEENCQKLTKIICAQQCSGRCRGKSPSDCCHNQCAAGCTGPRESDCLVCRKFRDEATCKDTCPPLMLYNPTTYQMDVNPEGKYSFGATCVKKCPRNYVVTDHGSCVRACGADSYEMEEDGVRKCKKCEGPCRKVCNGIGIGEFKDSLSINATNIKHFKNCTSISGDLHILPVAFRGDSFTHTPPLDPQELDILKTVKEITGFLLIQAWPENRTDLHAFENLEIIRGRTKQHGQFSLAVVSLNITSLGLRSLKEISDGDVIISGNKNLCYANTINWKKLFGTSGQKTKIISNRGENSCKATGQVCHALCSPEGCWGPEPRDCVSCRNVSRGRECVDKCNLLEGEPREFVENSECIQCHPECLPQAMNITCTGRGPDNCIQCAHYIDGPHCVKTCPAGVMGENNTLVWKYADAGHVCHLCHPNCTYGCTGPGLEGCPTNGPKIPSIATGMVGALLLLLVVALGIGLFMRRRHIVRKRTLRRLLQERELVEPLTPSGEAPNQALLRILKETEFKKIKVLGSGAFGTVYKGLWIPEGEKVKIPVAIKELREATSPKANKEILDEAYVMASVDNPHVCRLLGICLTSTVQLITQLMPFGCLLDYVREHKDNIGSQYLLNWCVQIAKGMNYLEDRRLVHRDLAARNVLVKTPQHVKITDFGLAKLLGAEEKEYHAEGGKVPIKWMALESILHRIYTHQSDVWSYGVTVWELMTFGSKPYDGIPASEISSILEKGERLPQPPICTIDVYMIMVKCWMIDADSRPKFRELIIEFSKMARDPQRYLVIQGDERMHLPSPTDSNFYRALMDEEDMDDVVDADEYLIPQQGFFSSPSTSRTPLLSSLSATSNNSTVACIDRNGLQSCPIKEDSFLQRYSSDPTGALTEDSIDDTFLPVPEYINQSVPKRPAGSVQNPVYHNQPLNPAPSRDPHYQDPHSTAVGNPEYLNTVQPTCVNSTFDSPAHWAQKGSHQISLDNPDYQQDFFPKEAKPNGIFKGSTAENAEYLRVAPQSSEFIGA
T1 sequence (P35968 807-1356): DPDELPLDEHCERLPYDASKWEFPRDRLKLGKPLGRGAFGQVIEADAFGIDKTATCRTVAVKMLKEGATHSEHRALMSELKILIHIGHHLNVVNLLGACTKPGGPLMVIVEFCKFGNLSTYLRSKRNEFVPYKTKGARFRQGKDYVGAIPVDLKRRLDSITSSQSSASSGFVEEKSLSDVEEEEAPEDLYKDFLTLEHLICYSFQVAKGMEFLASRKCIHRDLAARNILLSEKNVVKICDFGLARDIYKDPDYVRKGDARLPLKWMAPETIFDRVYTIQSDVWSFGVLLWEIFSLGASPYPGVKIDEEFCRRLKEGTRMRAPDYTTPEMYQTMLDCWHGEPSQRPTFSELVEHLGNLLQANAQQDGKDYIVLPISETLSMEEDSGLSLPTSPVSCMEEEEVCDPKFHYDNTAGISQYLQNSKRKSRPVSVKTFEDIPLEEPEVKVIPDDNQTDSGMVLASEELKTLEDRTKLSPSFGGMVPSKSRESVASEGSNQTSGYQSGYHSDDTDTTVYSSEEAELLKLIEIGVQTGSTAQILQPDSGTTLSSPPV
IRK, sequence (P06213 28-1382): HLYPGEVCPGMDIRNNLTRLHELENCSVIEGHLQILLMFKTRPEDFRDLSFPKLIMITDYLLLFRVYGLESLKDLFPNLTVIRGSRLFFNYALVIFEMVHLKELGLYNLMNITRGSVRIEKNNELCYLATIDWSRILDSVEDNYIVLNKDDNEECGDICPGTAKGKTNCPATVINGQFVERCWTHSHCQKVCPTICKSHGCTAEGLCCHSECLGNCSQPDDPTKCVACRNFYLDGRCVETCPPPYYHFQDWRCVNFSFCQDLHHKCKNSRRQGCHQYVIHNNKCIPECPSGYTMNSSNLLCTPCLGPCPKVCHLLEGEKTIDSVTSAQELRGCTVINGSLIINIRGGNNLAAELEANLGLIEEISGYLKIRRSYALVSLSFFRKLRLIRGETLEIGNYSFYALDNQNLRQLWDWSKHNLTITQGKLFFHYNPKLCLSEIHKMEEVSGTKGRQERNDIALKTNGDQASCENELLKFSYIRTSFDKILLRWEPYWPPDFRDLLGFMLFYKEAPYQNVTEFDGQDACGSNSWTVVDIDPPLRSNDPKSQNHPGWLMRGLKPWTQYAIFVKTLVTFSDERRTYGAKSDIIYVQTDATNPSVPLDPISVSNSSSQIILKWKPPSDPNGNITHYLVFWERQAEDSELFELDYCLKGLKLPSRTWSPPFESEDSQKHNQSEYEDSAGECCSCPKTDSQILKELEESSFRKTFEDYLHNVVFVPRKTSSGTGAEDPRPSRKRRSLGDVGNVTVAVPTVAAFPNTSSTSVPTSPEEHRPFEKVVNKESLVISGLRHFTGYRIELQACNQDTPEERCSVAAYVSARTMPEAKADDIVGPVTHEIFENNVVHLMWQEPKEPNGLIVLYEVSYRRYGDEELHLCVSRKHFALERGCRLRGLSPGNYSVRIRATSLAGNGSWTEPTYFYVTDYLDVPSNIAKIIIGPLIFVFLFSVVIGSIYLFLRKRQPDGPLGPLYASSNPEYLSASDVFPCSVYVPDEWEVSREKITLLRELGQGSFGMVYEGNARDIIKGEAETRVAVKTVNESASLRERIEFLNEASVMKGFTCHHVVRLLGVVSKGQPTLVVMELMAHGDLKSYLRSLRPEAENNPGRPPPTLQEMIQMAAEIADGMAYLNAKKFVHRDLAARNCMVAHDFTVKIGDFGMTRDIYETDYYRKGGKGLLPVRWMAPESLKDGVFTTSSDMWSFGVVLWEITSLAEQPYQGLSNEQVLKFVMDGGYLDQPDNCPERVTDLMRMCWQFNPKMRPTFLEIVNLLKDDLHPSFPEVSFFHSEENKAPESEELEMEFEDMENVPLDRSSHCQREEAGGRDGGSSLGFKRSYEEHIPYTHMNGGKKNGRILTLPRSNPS

One may read the IC50 as the concentration needed to halve the response being measured. Regarding `COCCN1CCC(Nc2ccc3c(c2)/C(=C(\c2cc(F)cc(F)c2)c2ncc[nH]2)C(=O)N3)CC1` [Entry 75, (3Z)-3-[(3,5-difluorophenyl)(1H-imidazol-2-yl)methylidene]-5-({1-[2-(methyloxy)ethyl]piperidin-4-yl}amino)-1,3-dihydro-2H-indol-2-one], the concentration for half-maximal inhibition (IC50) was less than 50 nM in assay [1]; 500 to 5000 nM on EphA2; 50 to 500 nM against EGFR; less than 50 nM against FGFR1; less than 50 nM at PDGFR alpha; less than 50 nM on Fyn. The compound also had an IC50 against IRK greater than 5000 nM.

Consider `COCCN1CCC(Nc2ccc3c(c2)/C(=C(\c2ccc(C)c(F)c2)c2ncc[nH]2)C(=O)N3)CC1` [Entry 63, (3Z)-3-[(3-fluoro-4-methylphenyl)(1H-imidazol-2-yl)methylidene]-5-({1-[2-(methyloxy)ethyl]piperidin-4-yl}amino)-1,3-dihydro-2H-indol-2-one], for which the IC50 in assay [1] was less than 50 nM; against EphA2 it was 50 to 500 nM; on EGFR it was 50 to 500 nM; against FGFR1 it was less than 50 nM; on PDGFR alpha, less than 50 nM; at Fyn it was less than 50 nM. The compound also displayed an IC50 against IRK of 500 to 5000 nM.

As to `CCN1CCC(Nc2ccc3c(c2)/C(=C(/c2cc(F)cc(F)c2)c2nc4cc(F)ccc4[nH]2)C(=O)N3)CC1` [Entry 61, (3E)-3-[(3,5-difluorophenyl)(5-fluoro-1H-benzimidazol-2-yl)methylidene]-5-[(1-ethylpiperidin-4-yl)amino]-1,3-dihydro-2H-indol-2-one], the IC50 in assay [1] was less than 50 nM; on EphA2, greater than 5000 nM; against EGFR it was greater than 5000 nM; against FGFR1, 50 to 500 nM; on PDGFR alpha, less than 50 nM; at Fyn it was less than 50 nM. This compound also had a half-maximal inhibitory concentration (IC50) against IRK greater than 5000 nM.

Turning to `COCCN1CCC(Nc2ccc3c(c2)/C(=C(\c2ccccc2)c2nc4cc(Cl)ccc4[nH]2)C(=O)N3)CC1` [Entry 72], the IC50 in assay [1] is less than 50 nM; against EphA2, 500 to 5000 nM; on EGFR, greater than 5000 nM; at FGFR1, less than 50 nM; on PDGFR alpha, less than 50 nM; against Fyn, 50 to 500 nM. Further, the IC50 against IRK was greater than 5000 nM.

`Cc1ccc(/C(=C2/C(=O)Nc3ccc(NC4CCN(C)CC4)cc32)c2ncc[nH]2)cc1` [Entry 86]: the half-maximal inhibitory concentration (IC50) was less than 50 nM in assay [1]; 50 to 500 nM against EphA2; 50 to 500 nM against EGFR; less than 50 nM on FGFR1; less than 50 nM at PDGFR alpha; less than 50 nM against Fyn. The same compound came in with an IC50 on IRK of 500 to 5000 nM.

With `CCOC(=O)c1[nH]c(/C(=C2\C(=O)Nc3ccc(NC4CCN(CCOC)CC4)cc32)c2cccc(F)c2)nc1C` [Entry 88, ethyl 2-{(Z)-(3-fluorophenyl)[5-({1-[2-(methyloxy)ethyl]piperidin-4-yl}amino)-2-oxo-1,2-dihydro-3H-indol-3-ylidene]methyl}-4-methyl-1H-imidazole-5-carboxylate], the IC50 in assay [1] is 50 to 500 nM; on EphA2, greater than 5000 nM; on EGFR it was greater than 5000 nM; against FGFR1, 50 to 500 nM; on PDGFR alpha it was less than 50 nM; against Fyn, 50 to 500 nM. In addition, the half-maximal inhibitory concentration (IC50) at IRK is greater than 5000 nM.

Take `COCCN1CCC(Nc2ccc3c(c2)/C(=C(\c2ccc(F)c(Cl)c2)c2ncc[nH]2)C(=O)N3)CC1` [Entry 80]: the IC50 is less than 50 nM in assay [1]; 500 to 5000 nM against EphA2; greater than 5000 nM at EGFR; 50 to 500 nM at FGFR1; 50 to 500 nM on PDGFR alpha; 50 to 500 nM against Fyn. The compound also returned an IC50 on IRK greater than 5000 nM.

Regarding `O=C1Nc2ccc(NC3CCN(CCN4CCCCC4)CC3)cc2/C1=C(\c1cccc(F)c1)c1ncc[nH]1` [Entry 82], the IC50 in assay [1] is 50 to 500 nM; against EphA2 it was 500 to 5000 nM; against EGFR it was greater than 5000 nM; at FGFR1, 50 to 500 nM; at PDGFR alpha, 50 to 500 nM; against Fyn it was 50 to 500 nM. In addition, the IC50 on IRK was greater than 5000 nM.

With `O=C1Nc2ccc(NC3CCNCC3)cc2/C1=C(\c1cccc(F)c1)c1ncc[nH]1` [Entry 81, (3Z)-3-[(3-fluorophenyl)(1H-imidazol-2-yl)methylidene]-5-(piperidin-4-ylamino)-1,3-dihydro-2H-indol-2-one], the 50% inhibitory concentration (IC50) in assay [1] is less than 50 nM; at EphA2, 50 to 500 nM; against EGFR, greater than 5000 nM; on FGFR1, less than 50 nM; at PDGFR alpha it was less than 50 nM; against Fyn, less than 50 nM. The compound also displayed an IC50 against IRK of 500 to 5000 nM.

Turning to `CCN1CCC(Nc2ccc3c(c2)/C(=C(\c2cc(F)cc(F)c2)c2nc4cc(F)ccc4[nH]2)C(=O)N3)CC1` [Entry 62, (3Z)-3-[(3,5-difluorophenyl)(5-fluoro-1H-benzimidazol-2-yl)methylidene]-5-[(1-ethylpiperidin-4-yl)amino]-1,3-dihydro-2H-indol-2-one], the IC50 in assay [1] was less than 50 nM; against EphA2, 500 to 5000 nM; against EGFR it was 50 to 500 nM; against FGFR1, less than 50 nM; on PDGFR alpha, less than 50 nM; at Fyn, less than 50 nM. The compound further yielded an IC50 at IRK greater than 5000 nM.

Regarding `COCCN1CCC(Nc2ccc3c(c2)/C(=C(\c2ccc(C)cc2)c2nc(C)c[nH]2)C(=O)N3)CC1` [Entry 77, (3Z)-3-[(4-methyl-1H-imidazol-2-yl)(4-methylphenyl)methylidene]-5-({1-[2-(methyloxy)ethyl]piperidin-4-yl}amino)-1,3-dihydro-2H-indol-2-one], the 50% inhibitory concentration (IC50) in assay [1] is less than 50 nM; against EphA2 it was 50 to 500 nM; against EGFR it was 50 to 500 nM; on FGFR1 it was less than 50 nM; at PDGFR alpha it was less than 50 nM; at Fyn it was less than 50 nM. Besides, the 50% inhibitory concentration (IC50) against IRK was in the range of 500 to 5000 nM.

As to `O=C1Nc2ccc(NC3CCN(CCN4CCOCC4)CC3)cc2/C1=C(\c1cccc(F)c1)c1ncc[nH]1` [Entry 83], the IC50 is less than 50 nM in assay [1]; 500 to 5000 nM at EphA2; greater than 5000 nM at EGFR; less than 50 nM against FGFR1; less than 50 nM on PDGFR alpha; 50 to 500 nM against Fyn. Also, the IC50 against IRK is greater than 5000 nM.

With `COCCN1CCC(Nc2ccc3c(c2)/C(=C(\c2ccc(C)cc2)c2ncc[nH]2)C(=O)N3)CC1` [Entry 69], the IC50 was less than 50 nM in assay [1]; 50 to 500 nM at EphA2; 50 to 500 nM against EGFR; less than 50 nM against FGFR1; less than 50 nM at PDGFR alpha; less than 50 nM against Fyn. Besides, the IC50 against IRK is 500 to 5000 nM.

Turning to `COCCN1CCC(Nc2ccc3c(c2)/C(=C(\c2ccccc2)c2ncc[nH]2)C(=O)N3)CC1` [Entry 89], the half-inhibitory concentration (IC50) was less than 50 nM in assay [1]; 500 to 5000 nM on EphA2; greater than 5000 nM against EGFR; less than 50 nM against FGFR1; less than 50 nM on PDGFR alpha; less than 50 nM at Fyn. Further, at IRK, the half-inhibitory concentration (IC50) was in the range of 500 to 5000 nM.

For `COCCN1CCC(Nc2ccc3c(c2)/C(=C(\c2cc(F)cc(F)c2)c2nc(C)c[nH]2)C(=O)N3)CC1` [Entry 76], the IC50 in assay [1] was less than 50 nM; at EphA2, 500 to 5000 nM; against EGFR, 50 to 500 nM; at FGFR1, less than 50 nM; on PDGFR alpha, less than 50 nM; at Fyn it was less than 50 nM. The compound further registered a half-maximal inhibitory concentration (IC50) against IRK of 500 to 5000 nM.

Consider `CCN(CC)CCN1CCC(Nc2ccc3c(c2)/C(=C(\c2cccc(F)c2)c2ncc[nH]2)C(=O)N3)CC1` [Entry 84, (3Z)-5-({1-[2-(diethylamino)ethyl]piperidin-4-yl}amino)-3-[(3-fluorophenyl)(1H-imidazol-2-yl)methylidene]-1,3-dihydro-2H-indol-2-one], for which the IC50 in assay [1] was 50 to 500 nM; against EphA2, 500 to 5000 nM; against EGFR, greater than 5000 nM; at FGFR1, 50 to 500 nM; on PDGFR alpha, 50 to 500 nM; against Fyn it was 50 to 500 nM. The concentration for half-maximal inhibition (IC50) on IRK was greater than 5000 nM.
